Converted amounts (≈) assume the structure as drawn.
What was measured:
E. coli K12 = experiment: Minimum inhibitory concentration (MIC), bioscreen spectrophotometer; assay type: cell-based; conditions: Escherichia coli, 24 h incubation at 37° C., bioscreen spectrophotometer at 600 nm
From the text: A range of different concentrations of antibiotic were used to establish the MIC employing a standardised method^17.

[1] = system: Staphylococcus aureus (Gram-positive); experiment: Susceptibility/resistance of the selected strain (Table 10); assay type: cell-based; conditions: Experimental Work 4
[2] = system: Psuedomonas aeruginosa (Gram-negative); experiment: as above; assay type: cell-based, Pseudomonas aeruginosa; conditions: Experimental Work 4
[3] = system: Staphylococcus epidermidis (Gram-positive); experiment: as above; assay type: cell-based; conditions: Experimental Work 4
P. aeruginosa = experiment: UV-Vis spectroscopy with PC-DFA cluster plot, phenotypic shift after antibiotic exposure vs unexposed control; assay type: cell-based, Pseudomonas aeruginosa; conditions: after both 10 minutes and 30 minutes
From the text: (§1) A first stage of data analysis involved the use of principal component analysis (PCA). […] Its aim is to simplify spectral data from a high number of variables into a smaller number of indices (each called a “principal component” or “PC”), simultaneously retaining the original data variance by identifying data patterns. This is achieved as each PC becomes a representation of a group of data with a linear relationship, at the same time being completely uncorrelated to the subsequent PC which corresponds to a different data dimension. PCs are arranged in a descending order in terms of the degree of original data variance they represent with the first PC representing the greatest amount of original data variance. Addition of all the PCs thus yields the entire original data variance, with the first 5 PCs nearly always corresponding to almost 95% of that variance^11,20-22.
(§2) In a second stage, discriminant function analysis (DFA), a supervised technique, was used. This chemometrics technique forms a model by taking into account the structure of data collected from the experiment, thus having a priori experimental knowledge. […]
(§3) The plates were transferred to one of two BioTek Synergy HT microplate readers programmed for 30 min shaking with medium speed at 37° C. followed by a full scan (200-999 nm range) of all the samples with 2 nm resolution. […]

S. aureus = experiment: as above; assay type: cell-based, Staphylococcus aureus
From the text: as §1
In a second stage, discriminant function analysis (DFA), a supervised technique, was used. This chemometrics technique forms a model by taking into account the structure of data collected from the experiment, thus having a priori experimental knowledge. Using this knowledge it then discriminates data into groups (bacterial classes of treatment) based on the PCs obtained from the PCA in an attempt to reduce intra-group variance and widen inter-group variance^23.
For each strain, 3 mL of nutrient broth was inoculated with the overnight grown cells to a final OD600nm=0.1, followed by dispensing the samples as 200 μL aliquots in a sterile Corning 96 well plate (5 biological replicates per strain for each condition). All plates were sealed using sterile Breath-Easy sealing membranes to reduce sample evaporation. The plates were incubated at 37° C. with 200 rpm shaking for 150 min.
The plates were transferred to one of two BioTek Synergy HT microplate readers programmed for 30 min shaking with medium speed at 37° C. followed by a full scan (200-999 nm range) of all the samples with 2 nm resolution.
In general, unless otherwise stated, the material and methods for Experimental Work 4 were the same as for Experimental Work 3, except that a single Thermo Biomate 5 UV-Vis spectrometer across spectral range of 300-800 nm was used for data collection in Experimental Work 4.

S. epidermidis = experiment: as above; assay type: cell-based, Staphylococcus epidermidis; conditions: after both 10 minutes and 30 minutes
From the text: as §1, §2, §3

Row | Structure (SMILES) | MIC (E. coli K12) [µg/mL] | Sensitive / Resistant to antibiotic [1] | Sensitive / Resistant to antibiotic [2] | Sensitive / Resistant to antibiotic [3] | shift in the cluster plot (PC-DFA) (P. aeruginosa) | shift in the cluster plot (PC-DFA) (S. aureus; after 30 minutes exposure) [units] | shift in the cluster plot (PC-DFA) (S. aureus; at 10 minutes exposure) | shift in the cluster plot (PC-DFA) (S. epidermidis)
1 | NCC[C@H](O)C(=O)N[C@@H]1C[C@H](N)[C@@H](O[C@H]2O[C@H](CN)[C@@H](O)[C@H](O)[C@H]2O)[C@H](O)[C@H]1O[C@H]1O[C@H](CO)[C@@H](O)[C@H](N)[C@H]1O [Amikacin] | 10 (≈ 17.1 µM) | – | – | – | – | – | – | –
2 | O=C(O)c1cn(C2CC2)c2cc(N3CCNCC3)c(F)cc2c1=O [Ciprofloxacin] | – | Sensitive | Sensitive | Sensitive | – | – | – | –
3 | CC1(C)S[C@@H]2[C@H](NC(=O)[C@H](N)c3ccccc3)C(=O)N2[C@H]1C(=O)O [Ampicillin] | 10 (≈ 28.6 µM) | Sensitive | Resistant | Resistant | minimal | ~1.5 | minimal | minimal
4 | COc1cc(Cc2cnc(N)nc2N)cc(OC)c1OC [Trimethoprim] | 300 (≈ 1030 µM) | Resistant | Resistant | Resistant | ~3 units | ~4 | minimal | ~3 units
